Measurements: US20070244030A1, “Method for Assessing Cancerous State” (SUMITOMO CHEMICAL COMPANY, LIMITED, priority 2003, published 2007)

How the values were obtained:
Neurofilament3 gene [1] = test: Real Time PCR of Neurofilament3 mRNA in HPAC cultured with methylation inhibitor; assay type: cell-based, human; settings: HPAC pancreatic cancer cell line, cells recovered on fourth day, not detected without inhibitor
Experimental: (§1) Two kinds of human-derived pancreatic cancer cell lines (PANC-1 and HPAC) were seeded at a density of about 6×10^5 cells/10 cm plate, and cultured using an exclusively used medium. On the first day after seeding, 5-aza-2′-deoxytidine (manufactured by Sigma) (hereinafter, referred to as 5Aza-dC) which is a methylation inhibitor was added to a medium to give the concentration of 0.5 or 1 μM. Twenty four hours after addition of 5Aza-Dc, the medium was exchanged with the aforementioned medium to which no 5Aza-dC was added, and culturing was continued. Then, on the third day after seeding, 5Aza-dC was added to the medium similarly. […]
(§2) A reaction solution of PCR was used which was obtained by mixing 50 ng of a cDNA as a template, each 1 μl of two kinds of 10 pmol/μl aforementioned primer solution, 4 μl of 2.5 mM dNTP, 4 μl of 5 mM dUTP, 5 μl of 10×SYBR Green PCR Buffer, 6 μof 25 mM MgCl2 and 0.3 μl of a 5 U/μl thermostable DNA polymerase (AmpliTaq Gold), 0.5 μl of AmpEraseUNG and adding sterilized ultrapure water thereto to an amount of solution of 50 μl. […] When a DNA derived from mRNA of Neurofilament3 gene and GAPDH gene was amplified, after the reaction solution Was retained at 95° C. for 10 minutes, Real Time PCR was performed at the conditions under which each cycle was 30 seconds at 95° C., 30 seconds at 59° C. and 30 seconds at 72° C. to quantitate Neurofilament3 gene and GAPDH gene.

Neurofilament3 gene [2] = test: Real Time PCR of Neurofilament3 mRNA in PANC-1 cultured with methylation inhibitor; assay type: cell-based, human; settings: PANC-1 pancreatic cancer cell line, cells recovered on fourth day, not detected without inhibitor
Experimental: as §1, §2

[3] = 0.5 μM 5Aza-dC added on first and third day
[4] = 1 μM 5Aza-dC added on first and third day

Measured: DNA derived from a mRNA of Neurofilament3 gene (expression of Neurofilament3 gene)

Nc1ncn([C@H]2C[C@H](O)[C@@H](CO)O2)c(=O)n1 [5Aza-dC, 5-aza-2′-deoxytidine]
detected: Neurofilament3 gene [1]; [3] | Neurofilament3 gene [1]; [4] | Neurofilament3 gene [2]; [3] | Neurofilament3 gene [2]; [4]
